Laboratory results taken from patent publication US5143910A, “Piperaziniocephalosporins” (Shionogi & Co., Ltd., priority 1989, dated 1992).
Values after ≈ are worked out from the molar mass of the structure shown. Where two headings read alike, the source gives them in different places. Blank lines part the entries; values can stand above or below the molecule they belong to.

Experiments:
[1] = system: Pseudomonas aeruginosa ATCC 25619; test: MIC on agar plate by two fold dilution (Japan Society of Chemotherapy) against Pseudomonas aeruginosa ATCC 25619; assay type: cell-based; settings: ATCC25619, P. aeruginosa ATCC 25619, in 0.01N-sodium hydrogen carbonate, read-out: minimal inhibitory concentration (MIC)
From the text: By altering the groups with the followings, the activity varied as below (AT=2-amino-4-thiazolyl).

Enterobacter cloacae = test: antibacterial activity against clinically isolated Enterobacter cloacae; assay type: cell-based
[2] = system: Pseudomonas aeruginosa SR 24; test: 50% effective dose for preventing mouse from death caused by Pseudomonas aeruginosa SR 24; assay type: in vivo
Procedure: The 50% effective dose of compound (I) where R^1 is 2-(2-amino-4-thiazolyl)-2-(1-carboxy-1-methylethoxy)imino-acetamido, R^2 is hydrogen, R^3 is methyl, R^4 R^5 is 3,4-dihydroxybenzoyl, R^6 combined with Y^- is a negative charge, X is sulfur for preventing mouse from the death caused by Pseudomonas aeruginose SR 24 is 1.25 mg/kg.

[3] = system: Pseudomonas aeruginosa SR 5018; test: MIC against ofloxacin resistant Pseudomonas aeruginosa SR 5018; assay type: cell-based
[4] = safety test, intravenous injection, rabbit; assay type: in vivo; settings: dose up to 1 g/kg
[5] = system: Serratia marcescens A 13880; test: ED50 against Serratia marcescens A 13880; assay type: in vivo; settings: A13880, mouse
Morgania morganii = test: antibacterial activity against clinically isolated Morgania morganii; assay type: cell-based
[6] = system: Pseudomonas aeruginosa SR 4967; test: ED50 against Pseudomonas aeruginosa SR 4967; assay type: in vivo; settings: SR4967, mouse
[7] = system: Pseudomonas aeruginosa SR 24; test: MIC against Pseudomonas aeruginosa SR 24; assay type: cell-based; settings: SR24
[8] = safety test, intravenous injection, mouse; assay type: in vivo; settings: dose up to 1 g/kg
[9] = antibacterial activity against clinically isolated Clostridium freundii; assay type: cell-based
[10] = urinary and bile juice recovery after subcutaneous injection; assay type: in vivo; settings: urine and bile, sc; during 2 hours after subcutaneous injection (20 mg/kg); read-out: urinary and bile juice recovery (total)

- MIC [1]: 0.02 mg/L (≈ 0.0271 µM)
Structure (SMILES): CC(C)(O/N=C(\C(=O)N[C@@H]1C(=O)N2C(C(=O)[O-])=C(C[N+]3(C)CCN(C(=O)c4cc(O)c(O)c(Cl)c4)CC3)CS[C@H]12)c1csc(N)n1)C(=O)O [No. 11]

- MIC [1]: 0.02 mg/L (≈ 0.0271 µM)
Structure (SMILES): CC(C)(O/N=C(\C(=O)N[C@@H]1C(=O)N2C(C(=O)[O-])=C(C[N+]3(C)CCN(C(=O)c4cc(O)c(O)cc4Cl)CC3)CS[C@H]12)c1csc(N)n1)C(=O)O [No. 12]

- MIC [1]: 0.05 mg/L (≈ 0.0792 µM)
Structure (SMILES): CO/N=C(\C(=O)N[C@@H]1C(=O)N2C(C(=O)[O-])=C(C[N+]3(C)CCN(C(=O)c4ccc(O)c(O)c4)CC3)CS[C@H]12)c1csc(N)n1 [No. 3]

- MIC [1]: 3.1 mg/L (≈ 4.32 µM)
Structure (SMILES): COc1cc(C(=O)N2CC[N+](C)(CC3=C(C(=O)[O-])N4C(=O)[C@@H](NC(=O)C(=NOC(C)(C)C(=O)O)c5csc(N)n5)[C@H]4SC3)CC2)ccc1O [No. 14]

- MIC [1]: 0.02 mg/L (≈ 0.0271 µM)
Structure (SMILES): CC(C)(O/N=C(\C(=O)N[C@@H]1C(=O)N2C(C(=O)[O-])=C(C[N+]3(C)CCN(C(=O)c4ccc(O)c(O)c4Cl)CC3)CS[C@H]12)c1csc(N)n1)C(=O)O [No. 9, 7β-[2-(2-aminothiazol-4-yl)-2-(1-carboxy-1-methylethoxyimino)acetamido]-3-[4-(2-chloro-3,4-dihydroxybenzoyl)-1-methylpiperazinio-1-yl]methyl-3-cephem-4-carboxylate]

The remaining lines, values behind:

Structure (SMILES): CC(C)(O/N=C(\C(=O)N[C@@H]1C(=O)N2C(C(=O)[O-])=C(C[N+]3(C)CCN(Cc4ccc(O)c(O)c4)CC3)CS[C@H]12)c1csc(N)n1)C(=O)O [No. 15]
- MIC [1]: 0.1 mg/L (≈ 0.145 µM)

Structure (SMILES): CO/N=C(\C(=O)N[C@@H]1C(=O)N2C(C(=O)[O-])=C(C[N+]3(C)CCN(CC(=O)c4ccc(O)c(O)c4)CC3)CS[C@H]12)c1csc(N)n1 [No. 6]
- MIC [1]: 0.05 mg/L (≈ 0.0774 µM)

Structure (SMILES): C[N+]1(CC2=C(C(=O)[O-])N3C(=O)[C@@H](NC(=O)Cc4ccccc4)[C@H]3SC2)CCN(C(=O)c2ccc(O)c(O)c2)CC1 [No. 2]
- MIC [1]: > 100 mg/L

Structure (SMILES): CC(C)(O/N=C(\C(=O)N[C@@H]1C(=O)N2C(C(=O)[O-])=C(C[N+]3(C)CCN(C(=O)c4ccc(O)c(O)c4)CC3)CS[C@H]12)c1csc(N)n1)C(=O)O [No. 8, 7β-[2-(2-amino-4-thiazolyl)-2-(1-carboxy-1-methylethoxyimino)acetamido]-3-[4-(3,4-dihydroxybenzoyl)-1-methylpiperazinio-1-yl]methyl-3-cephem-4-carboxylate]
- antibacterial activity (Enterobacter cloacae): high antibacterial activity
- ED50 ([2]; Pseudomonas aeruginosa, SR24, read-out: 50% effective dose for preventing mouse from death): 1.25 mg/kg
- ED50 ([2]; SR24, mouse, Pseudomonas aeruginosa SR 24, read-out: ED50 (mouse)): 1.41 mg/kg
- times more potent (ED50) than reference 3-(3,4-dihydroxybenzyl) compound ([2]; vs 3.4 mg/kg of the reference, P. aeruginosa SR 24): 2.4 times
- times more potent (ED50) than reference 3-(dihydroxyphenylthiadiazolylthio)methyl compound ([2]; vs 16.3 mg/kg of the reference, P. aeruginosa SR 24): 11.6 times
- MIC ([3]; SR5018, ofloxacin resistant Pseudomonas aeruginosa SR 5018): 0.05 mg/L (≈ 0.071 µM)
- times more potent (MIC) than BO-1341 ([3]; vs 0.4 γ/ml of BO-1341, P. aeruginosa SR 5018): 8 times
- times more potent (MIC) than E-1040 ([3]; vs 6.3 γ/ml of E-1040, P. aeruginosa SR 5018): 126 times
- times more potent (MIC) than ceftazidime ([3]; vs 25 γ/ml of ceftazidime, P. aeruginosa SR 5018): 500 times
- death [4]: did not show death
- ED50 [5]: 0.28 mg/kg
- antibacterial activity (Morgania morganii): high antibacterial activity
- ED50 [6]: 4.91 mg/kg
- MIC [7]: 0.1 mg/L (≈ 0.142 µM)
- death [8]: did not show death
- antibacterial activity [9]: high antibacterial activity
- dose excreted at 2 h [10]: 70.4%

Structure (SMILES): CC(C)(O/N=C(\C(=O)N[C@@H]1C(=O)N2C(C(=O)[O-])=C(C[N+]3(C)CCN(C(=O)c4cc(Cl)c(O)c(O)c4Cl)CC3)CS[C@H]12)c1csc(N)n1)C(=O)O [No. 13]
- MIC [1]: 0.02 mg/L (≈ 0.0259 µM)

Structure (SMILES): C=C(O/N=C(\C(=O)N[C@@H]1C(=O)N2C(C(=O)[O-])=C(C[N+]3(C)CCN(C(=O)c4ccc(O)c(O)c4)CC3)CS[C@H]12)c1csc(N)n1)C(=O)O [No. 17]
- MIC [1]: 0.05 mg/L (≈ 0.0727 µM)

Structure (SMILES): CO[C@@]1(NC(=O)CSC(F)F)C(=O)N2C(C(=O)[O-])=C(C[N+]3(C)CCN(C(=O)c4ccc(O)c(O)c4)CC3)CO[C@@H]21 [No. 1]
- MIC [1]: > 100 mg/L
